For orientation: IC50 means the concentration needed to halve the response being measured.

Here are results for 1 compound from patent US9611276B2, “Imidazo bicyclic iminium compounds as antitumor agents” (THE BOARD OF TRUSTEES OF THE LELAND STANFORD JUNIOR …, priority 2012, dated 2017).

SMILES strings stand for the structures.

In series [1] the test system is Hh pathway-dependent osteoblast differentiation. The series can be described thus: C3H10T(1/2) cell assay, alkaline phosphatase. Type of series: cell-based. The method, then:
C3H10T(1/2) cells were obtained from ATCC and cultured in DMEM (Invitrogen, 11965) containing 10% (v/v) fetal bovine serum (Invitrogen, No. 26140), and 1× PenStrep (Gibco, 15140).
(§1) All test compounds were dissolved in DMSO at 50 mM, serially diluted by 1:3, 1:4 or 1:5 in a 96-well translucent microplate (Greiner bio-one, 650201) and stored at −20° C. These serial dilutions were added to assay media freshly with final DMSO concentration of 0.2% (v/v).
The C3H10T(1/2) cell assay provides a measure of Hh pathway-dependent osteoblast differentiation. C3H10T(1/2) cells were seeded into a 96-well plate (20,000 cells/well), cultured for 30 hrs and then incubated with test compounds in DMEM (Invitrogen, 11965) containing 0.5% (v/v) fetal bovine serum (Invitrogen, 26140), 1× PenStrep (Gibco, 15140), and 10% (v/v) Shh-N-conditioned medium for 44 hrs. The cells were lysed with lysis buffer (50 μL/well) containing 50 mM Tris-HCl, pH 9.5, 150 mM NaCl, 50 mM MgCl2, and 1% (v/v) Triton X-100. 10 μL of the obtained lysate were analyzed for alkaline phosphatase activities using CDP-Star Substrate (Applied Biosystems, T2146) reagent (50 μL/well) on a microplate luminometer (Veritas). Biological triplicates were analyzed for each test compounds.

A further series addresses T1, Smo (Mus musculus, UniProt P56726).
T1 construct: endogenous in cells; host or cells: NIH 3T3
The series can be described thus: Smo trafficking assay in NIH 3T3 cells. The conditions noted are these: Hh-responsive cells, ShhN stimulation. Type of series: cell-based. The text has this:
The cells were imaged using a Plan Apochromat 63×/1.4-0.6 oil immersion objective on an upright Leica DM4500B compound microscope.

The next series concerns Sufu-KO-LIGHT cells. As to the kind of experiment: Sufu-KO-LIGHT cell assay, cytotoxicity (CellTiter 96 AQueous One). Type of series: cell-based, mouse. The method, then: Sufu-KO-LIGHT cells were derived from Sufu knockout mouse embryonic fibroblasts according to the method of Chen et al. [Genes Dev. 2009; 23(16):1910-28.] The cells were co-transfected with the zeocin resistance vector (pVgRXR, Invitrogen) and a firefly luciferase reporter driven by eight Gli binding sites and a γ-crystallin basal promoter (8XGliBS-FL) [see Sasaki et al. Development. 1997; 124(7):1313-22.2]. […] Sufu-KO-LIGHT cells were cultured in DMEM (Invitrogen, 11965) containing 10% (v/v) fetal bovine serum (Invitrogen, No. 26140), 150 μg/mL zeocin (Invitrogen, R250-01), 1 mM sodium pyruvate (Invitrogen, 11360) and 1× PenStrep (Gibco, 15140).
as §1
The Sufu-KO-LIGHT cell assay provides a measure of Hh pathway activity and cytotoxicity. […] Bright Glo (Promega, E2620) reagent (50 μL/well) was added to the cells, and luciferase activities were determined on a microplate luminometer (Veritas). […] Cell viability was determined by measuring absorption at 490 nm after 1 hr of incubation on a microplate spectrophotometer (Benchmark Plus, Bio-Rad). Biological triplicates were analyzed for each test compounds.

T1 sequence (P56726 33-793): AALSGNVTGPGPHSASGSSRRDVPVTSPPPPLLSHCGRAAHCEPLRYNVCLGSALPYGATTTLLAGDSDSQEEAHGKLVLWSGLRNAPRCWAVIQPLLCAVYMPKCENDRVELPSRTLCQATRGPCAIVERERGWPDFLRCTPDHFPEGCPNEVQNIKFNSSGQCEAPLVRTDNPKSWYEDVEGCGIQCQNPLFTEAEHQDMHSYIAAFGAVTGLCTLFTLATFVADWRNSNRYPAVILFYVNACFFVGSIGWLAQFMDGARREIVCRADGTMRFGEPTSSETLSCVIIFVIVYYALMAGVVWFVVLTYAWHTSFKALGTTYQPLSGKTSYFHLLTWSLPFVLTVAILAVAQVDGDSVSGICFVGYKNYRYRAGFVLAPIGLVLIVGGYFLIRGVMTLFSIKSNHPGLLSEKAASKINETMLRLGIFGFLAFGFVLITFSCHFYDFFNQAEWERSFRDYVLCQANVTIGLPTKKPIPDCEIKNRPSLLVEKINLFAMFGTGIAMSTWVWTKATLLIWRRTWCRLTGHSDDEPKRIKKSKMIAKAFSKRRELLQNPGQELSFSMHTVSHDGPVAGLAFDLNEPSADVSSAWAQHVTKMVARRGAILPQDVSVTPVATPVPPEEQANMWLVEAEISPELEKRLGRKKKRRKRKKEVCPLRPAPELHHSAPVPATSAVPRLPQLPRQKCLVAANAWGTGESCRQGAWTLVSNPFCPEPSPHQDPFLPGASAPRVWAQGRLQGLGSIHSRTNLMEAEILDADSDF

As to `CCOc1ccc(-[n+]2cc(-c3ccc(Br)cc3)n3c2CCCCC3)cc1` [Compound A-1], the IC50 in series [1] (Osteoblast, C3H10T(½) w/ ShhN) was 5.2 ± 3.7 µM. Also, the “Differentiation of C3H10T1/2 cells into alkaline-phosphatase-expressing osteoblasts” value in series [1] (ShhN-conditioned medium) is recorded as “blocked”. In addition, the “Effect on Smo localization / trafficking” value on Smo is “did not affect Smo localization”. Moreover, the “General cytotoxicity” value with Sufu-KO-LIGHT cells is “not generally cytotoxic”. For the same compound, the “IC50, cytotoxicity” value in the series with Sufu-KO-LIGHT cells (Sufu-KO-LIGHT cells) is reported as “No toxicity”.
